Where two headings read alike, the source gives them in different places.

One data set deals with Calreticulin. The data set is described as follows: Calreticulin release (ER to plasma membrane translocation) screen, Nano-Glo HiBiT extracellular detection. Type of data set: cell-based. The note with it: extracellular luminescence, read-out: CalR EC50. Here is the method:
Construction of pBiT3.1-Calreticulin Plasmid Calreticulin derived from pCMV6-AC plasmid (ref. SC320287, Origene) was amplified by PCR using the following set of primers: Seq ID No 3: forward, 5′-[…]-3′; Seq ID No 4: reverse, 5′-[…]-3′. The PCR fragment was subsequently digested by EcoRI and XhoI (R3101S and R0146S respectively, New England Biolabs) and inserted between the EcoRI and XhoI sites in the plasmid pBiT3.1-C(ref. N237A, Promega). The resulting plasmid (pBiT3.1-Calreticulin) was grown in NEB10-beta competent E. coli (ref. C3019I, New England Biolabs) and purified using the NucleoBond Xtra Midi Kit (ref. 740410, Macherey-Nagel).
Construction of Calreticulin Reporter Cell Line
pBiT3.1-Calreticulin was transfected in MDA-MB-231 cells (ref. ATCC HTB-2) using Lipofectamine 2000 reagent (ref. 11668, Invitrogen). Transfected cells were selected for blasticidin resistance (15 μg/ml, ref. Al 113903 Gibco) in medium containing DMEM 1× (ref. 1995065, Gibco) with 1% penicillin and streptomycin, and 10% fetal bovine serum.
Screen for Calreticulin-ER to Plasma Membrane Translocating Drugs
MDA-MB-231 cells stably expressing Calreticulin-HiBiT (10^4 cells/well) were seeded into white 96-well plates (ref.3917, Corning) and allowed to recover for 24h. […] Mitoxantrone dihydrochloride (ref. M6545, Sigma-Aldrich) was used as a positive control. Extracellular translocation of Calreticulin was measured using the Nano-Glo HiBiT extracellular detection system (ref. N2422, Promega). Nano-Glo HiBiT Extracellular Reagent was prepared in advance, added to the well and incubated 10 min.
Luminescence of the extracellular Calreticulin-HiBiT was quantified using the Spark 20M spectrofluorimeter (TECAN).
Background: HiBiT is a short tag that completes a luciferase, so light tracks the accessible tagged protein.

The next data set has as its system HMGB1. The data set is described as follows: HMGB1 release screen, Nano-Glo HiBiT extracellular detection. Format: cell-based. The note with it: extracellular luminescence. On the procedure:
Construction of pBiT3.1-HMGB1 Plasmid
HMGB1 derived from pCMV6-AC-GFP plasmid (ref. RG205918, Origene) was amplified by PCR using the following set of primers: Seq ID No 1: forward, 5′-[…]-3′; Seq ID No 2: reverse, 5′-[…]-3′. The PCR fragment was subsequently digested by EcoRI and XhoI (R3101S and R0146S respectively, New England Biolabs) and inserted between the EcoRI and XhoI sites in the plasmid pBiT3.1-C(ref. N237A, Promega). The resulting plasmid (pBiT3.1-HMGB1) was grown in NEB10-beta competent E. coli (ref. C3019I, New England Biolabs) and purified using the NucleoBond Xtra Midi Kit (ref. 740410, Macherey-Nagel).
Construction of HMGB1 Reporter Cell Line
pBiT3.1-HMGB1 was transfected in MDA-MB-231 cells (ref. ATCC HTB-2) using Lipofectamine 2000 reagent (ref. 11668, Invitrogen). Transfected cells were selected for blasticidin resistance (15 μg/ml, ref. Al 113903 Gibco) in medium containing DMEM 1× (ref. 1995065, Gibco) with 1% penicillin and streptomycin, and 10% fetal bovine serum.
Screen for HMGB1-Releasing Drugs
MDA-MB-231 cells stably expressing HMGB1-HiBiT (10^4 cells/well) were seeded into white 96-well plates (ref.3917, Corning) and allowed to recover for 24h. […] Mitoxantrone dihydrochloride (ref. M6545, Sigma-Aldrich) was used as a positive control. Extracellular translocation of HMGB1 was measured using the Nano-Glo HiBiT extracellular detection system (ref. N2422, Promega). Nano-Glo HiBiT Extracellular Reagent was prepared in advance, added to the well and incubated 10 min. Luminescence of the extracellular HMGB1-HiBiT was quantified using the Spark 20M spectrofluorimeter (TECAN)

[1] abbreviates: Homo sapiens, MDA-MB-231, MDA-MB-231 cells stably expressing Calreticulin-HiBiT.
The mark [2] stands for this setting: Homo sapiens, MDA-MB-231, MDA-MB-231 cells stably expressing HMGB1-HiBiT.

For orientation: EC50 means the concentration needed to bring the measured effect to its halfway point. For orientation: melting point means the temperature of the solid-liquid transition. The compound `COc1cccc2c1CCN(Cc1nc3ccc(Cl)cc3c(=O)[nH]1)C2` [Ex. #58, 6-chloro-2-[(5-methoxy-3,4-dihydro-1H-isoquinolin-2-yl)methyl]-3H-quinazolin-4-one] yielded a melting point of 205 to 212 °C. Also, in the data set with Calreticulin (setting [1]), the EC50 stood at 524 nM. The same compound gave an EC50 in the data set on HMGB1 (setting [2]) of 4810 nM.

For `CC(C)c1ccc2nc(CN3CCc4ccccc43)[nH]c(=O)c2c1` [Ex. #81, 2-(indolin-1-ylmethyl)-6-isopropyl-3H-quinazolin-4-one], the melting point is 168 to 185 °C. Further, the EC50 with Calreticulin (setting [1]) worked out at 80 nM. In the data set on HMGB1 (setting [2]), the EC50 was 410 nM.

As for `COc1cc2c(=O)[nH]c(CN3CCc4ccccc43)nc2cn1` [Ex. #78, 2-(indolin-1-ylmethyl)-6-methoxy-3H-pyrido[3,4-d]pyrimidin-4-one], the melting point fell in the range of 215 to 230 °C. For the same compound, the concentration for a half-maximal effect (EC50) in the data set on Calreticulin (setting [1]) amounted to 2450 nM. The EC50 in the data set with HMGB1 (setting [2]) was 3250 nM.

On to `COc1ccc2nc(CN3CC(C)c4ccccc43)[nH]c(=O)c2c1` (stereo not drawn) [Ex. #3, 6-methoxy-2-[(3-methylindolin-1-yl)methyl]-3H-quinazolin-4-one], for which the melting point fell in the range of 192 to 213 °C. The concentration giving a half-maximal response (EC50) with Calreticulin (setting [1]) was determined as 191 nM. Further, it took 263 nM to reach a half-maximal effect with HMGB1 (setting [2]) (EC50).

Regarding `COc1cc2c(=O)[nH]c(CN3CC(C)(C)c4ccccc43)nc2cc1F` [Ex. #77, 2-[(3,3-dimethylindolin-1-yl)methyl]-7-fluoro-6-methoxy-3H-quinazolin-4-one], the melting point was in the range of 194 to 209 °C. The EC50 with Calreticulin (setting [1]) was 150 nM. The same compound showed a 50% effective concentration (EC50) in the data set on HMGB1 (setting [2]) of 150 nM.

On to `CC1CN(Cc2nc3ccc(Cl)cc3c(=O)[nH]2)c2ccccc21` (stereo not drawn) [Ex. #37, 6-chloro-2-[(3-methylindolin-1-yl)methyl]-3H-quinazolin-4-one], for which the melting point is 200 to 223 °C. In addition, in the data set with Calreticulin (setting [1]), the EC50 stood at 1160 nM. Moreover, a half-maximal response in the data set on HMGB1 (setting [2]) (EC50) required 3160 nM.

`COc1cc2c(=O)[nH]c(CN3CC(C)(C)c4ccccc43)nc2cn1` [Ex. #79, 2-[(3,3-dimethylindolin-1-yl)methyl]-6-methoxy-3H-pyrido[3,4-d]pyrimidin-4-one] registered a melting point of 145 to 167 °C. Also, in the data set with Calreticulin (setting [1]), the EC50 turned out to be 796 nM. The EC50 in the data set with HMGB1 (setting [2]) was found to be 801 nM.

The compound `CN(C)c1cc2c(=O)[nH]c(CN3CCc4ccccc43)nc2cc1F` [Ex. #80, 6-(dimethylamino)-7-fluoro-2-(indolin-1-ylmethyl)-3H-quinazolin-4-one] yielded a melting point of 200 to 223 °C. In addition, the EC50 with Calreticulin (setting [1]) stood at 220 nM. This compound returned an EC50 in the data set with HMGB1 (setting [2]) of 225 nM.

In turn, `COc1ccc2nc(CN3CCc4c(C#N)cccc4C3)[nH]c(=O)c2c1` [Ex. #16, 2-[(6-methoxy-4-oxo-3H-quinazolin-2-yl)methyl]-3,4-dihydro-1H-isoquinoline-5-carbonitrile] had a melting point of 197 to 218 °C. The EC50 in the data set on Calreticulin (setting [1]) turned out to be 490 nM. Besides, in the data set with HMGB1 (setting [2]), the EC50 worked out at 2660 nM.

Turning to `COc1ccc2nc(CN3CCc4ccccc4C3)[nH]c(=O)c2c1` [Ex. #122, 2-(3,4-dihydro-1H-isoquinolin-2-ylmethyl)-6-methoxy-3H-quinazolin-4-one], the melting point is 174 to 179 °C. In addition, the EC50 with Calreticulin (setting [1]) came out at 1660 nM. This compound registered an EC50 with HMGB1 (setting [2]) of 12700 nM.

The compound `COc1ccc2nc(CN3CCc4c(F)cccc43)[nH]c(=O)c2c1` [Ex. #126, 2-[(4-fluoroindolin-1-yl)methyl]-6-methoxy-3H-quinazolin-4-one] returned a melting point of 222 to 232 °C. The half-maximal effective concentration (EC50) in the data set with Calreticulin (setting [1]) was determined as 8060 nM.

For `O=c1[nH]c(CN2CCc3ccccc32)nc2cc(C(F)(F)F)ccc12` [Ex. #91, 2-(indolin-1-ylmethyl)-7-(trifluoromethyl)-3H-quinazolin-4-one], the values for the EC50 in the data set with Calreticulin (setting [1]) and with HMGB1 (setting [2]) were 8110 nM and 10100 nM, respectively.

For the compound `COc1ccc2nc(CN3Cc4ccccc4C3)[nH]c(=O)c2c1` [Ex. #10, 2-(isoindolin-2-ylmethyl)-6-methoxy-3H-quinazolin-4-one], the EC50 came to 4460 nM in the data set with Calreticulin (setting [1]) and 6860 nM in the data set on HMGB1 (setting [2]).

As to `COc1ccc2nc(CN3CCc4c(Cl)cccc4C3)[nH]c(=O)c2c1` [Ex. #20, 2-[(5-chloro-3,4-dihydro-1H-isoquinolin-2-yl)methyl]-6-methoxy-3H-quinazolin-4-one], the values for the EC50 in the data set with Calreticulin (setting [1]) and with HMGB1 (setting [2]) were 4260 nM and 10800 nM, respectively.

Consider `O=c1[nH]c(CN2CCCc3ccccc32)nc2ccc(Cl)cc12` [Ex. #51, 6-chloro-2-(3,4-dihydro-2H-quinolin-1-ylmethyl)-3H-quinazolin-4-one], for which the EC50 in the data set on Calreticulin (setting [1]) is 10300 nM; in the data set with HMGB1 (setting [2]), 11800 nM.

In the case of `O=c1[nH]c(CN2CCc3ccccc32)nc2ccc(C3CC3)cc12` [Ex. #99, 6-cyclopropyl-2-(indolin-1-ylmethyl)-3H-quinazolin-4-one], the EC50 with Calreticulin (setting [1]) and with HMGB1 (setting [2]) was 97.5 nM in each case.

For `COC1CN(c2ccc3nc(CN4CCc5ccccc54)[nH]c(=O)c3c2)C1` [Ex. #101, 2-(indolin-1-ylmethyl)-6-(3-methoxyazetidin-1-yl)-3H-quinazolin-4-one], the figures for the EC50 in the data set on Calreticulin (setting [1]) and in the data set with HMGB1 (setting [2]) were 10000 nM and 10200 nM, respectively.

Consider `COc1ccc2nc(CN3CC(C)c4ccccc43)[nH]c(=O)c2c1` (single isomer, unassigned) [Ex. #4, 6-methoxy-2-[(3-methylindolin-1-yl)methyl]-3H-quinazolin-4-one], for which the EC50 stood at 172 nM in the data set on Calreticulin (MDA-MB-231 cells stably expressing Calreticulin-HiBiT) and 207 nM in the data set with HMGB1 (MDA-MB-231 cells stably expressing HMGB1-HiBiT).

On to `CC(C)Oc1ccc2nc(CN3CCc4ccccc43)[nH]c(=O)c2c1` [Ex. #87, 2-(indolin-1-ylmethyl)-6-isopropoxy-3H-quinazolin-4-one], for which the EC50 in the data set on Calreticulin (setting [1]) was 2160 nM; in the data set on HMGB1 (setting [2]), 3960 nM.

As to `O=c1[nH]c(CN2CCc3ccccc32)nc2cc(Cl)ccc12` [Ex. #89, 7-chloro-2-(indolin-1-ylmethyl)-3H-quinazolin-4-one], the EC50 stood at 8260 nM in the data set on Calreticulin (setting [1]) and 6260 nM with HMGB1 (setting [2]).

Turning to `CC1Cc2ccccc2N1Cc1nc2ccc(Cl)cc2c(=O)[nH]1` (stereo not drawn) [Ex. #41, 6-chloro-2-[(2-methylindolin-1-yl)methyl]-3H-quinazolin-4-one], the EC50 was determined as 8010 nM in the data set with Calreticulin (setting [1]) and 9610 nM with HMGB1 (setting [2]).

With `COCC1CCN(c2ccc3nc(CN4CCc5ccccc54)[nH]c(=O)c3c2)C1` (stereo not drawn) [Ex. #103, 2-(indolin-1-ylmethyl)-6-[3-(methoxymethyl)pyrrolidin-1-yl]-3H-quinazolin-4-one], the EC50 turned out to be 518 nM with Calreticulin (setting [1]) and 858 nM in the data set with HMGB1 (setting [2]).

`O=c1[nH]c(CN2CCc3ccccc32)nc2ccc(C(F)(F)F)cc12` [Ex. #85, 2-(indolin-1-ylmethyl)-6-(trifluoromethyl)-3H-quinazolin-4-one]: the EC50 was found to be 1960 nM with Calreticulin (setting [1]) and 3560 nM in the data set on HMGB1 (setting [2]).

Regarding `COC1CCN(c2ccc3nc(CN4CCc5ccccc54)[nH]c(=O)c3c2)CC1` [Ex. #132, 2-(indolin-1-ylmethyl)-6-(4-methoxy-1-piperidyl)-3H-quinazolin-4-one], the values for the EC50 in the data set with Calreticulin (setting [1]) and in the data set on HMGB1 (setting [2]) were 10400 nM and 14400 nM, respectively.

As for `COc1ccc2nc(CN3CCCc4cccc(Cl)c43)[nH]c(=O)c2c1` [Ex. #12, 2-[(8-chloro-3,4-dihydro-2H-quinolin-1-yl)methyl]-6-methoxy-3H-quinazolin-4-one], the EC50 was found to be 522 nM in the data set on Calreticulin (setting [1]) and 751 nM with HMGB1 (setting [2]).
